# From patent publication US3944498A, “Germicidal detergent containing a thienyliodonium salt” (The Dow Chemical Company, priority 1973, dated 1976)
# Tests used:
# S. aureus [1] = test: Agar plate kill test with Ivory soap, S. aureus; type: cell-based; conditions: 2 days, 37°C
# Protocol: (§1) Phenyl-2-thienyliodonium chloride, 2,2'-bisthienyliodonium chloride, and, for comparative purposes, diphenyliodonium chloride are individually dispersed in Ivory soap to provide concentrates containing 1 part by weight of iodonium salt to 50 parts by weight of soap. The soap concentrates are serially dispersed and serially diluted with liquid nutrient agar at 42°C. to prepare culture media containing various concentrations of one of the iodonium salts. The culture media are uniformly inoculated with S. aureus and plated in petri dishes. The inoculation is carried out from broth cultures of the named organism containing about 5×10^8 organisms per milliliter in the proportion of one-tenth milliliter of bacterial culture per 20 milliliters of cultur medium containing each test compound. In a check operation, nutrient agar containing the same amount of Ivory soap is similarly inoculated with the same organism. After two days' incubation at 37°C., the plates are examined for microbial growth.
# A. aerogenes = test: Agar plate kill test with Ivory soap, A. aerogenes; type: cell-based; conditions: Ivory soap; for killing at 5 ppm: 5 p.p.m.
# Protocol: as §1
# The procedure described above is repeated with varying concentrations of 4-chlorophenyl-2-thienyliodonium chloride, 3,4-dichlorophenyl-2-thienyliodonium chloride, and for comparative purposes bis(4-chlorophenyl)iodonium chloride, phenyl-4-chlorophenyliodonium chloride and bis(2,4-dichlorophenyl)iodoniumchloride in a series of tests wherein the culture media are inoculated individually with the organism A. aerogenes.
# The procedure described above is once again repeated with each of 2,2'-bisthienyliodonium chloride, phenyl-2-thienyliodonium chloride, 4-bromophenyl-2-thienyliodonium chloride, bis(4-bromophenyl)iodonium chloride and bis(4-bromophenyl)iodonium bromide in a series of tests wherein the culture media are inoculated individually with the organism A. aerogenes.
# S. typhosa [2] = test: Agar plate kill test with Ivory soap, S. typhosa; type: cell-based
# Protocol: as §1
# The procedure described above is again repeated in a series of tests wherein the culture media are inoculated individually with the organism S. typhosa and wherein the culture media contain varying concentrations of one of the iodonium salts, as set forth in following Table II.
# S. aureus [3] = test: Nutrient agar growth test, S. aureus (Example 3); type: cell-based; conditions: 0.001 percent by weight, 2 days, 35°C
# Excerpt: (§2) The 4-chlorophenyl-2-thienyliodonium chloride, trifluoroacetate and trichloroacetate salts are dispersed in melted nutrient agar to produce culture media containing 0.001 percent by weight of one of the salt compounds. Such melted media are then poured into petri dishes and the solidified surface in each dish inoculated with a 24-hour broth culture, one of the organisms S. aureus and S. typhosa. In a check operation, petri dishes containing unmodified nutrient agar are each individually inoculated in the same manner with the named organisms. After two days' incubation at 35°C. the agar surface in each dish is examined for microbial growth. […] At the time of these observations the check dishes are found to support a heavy growth of the two named organisms.
# S. typhosa [4] = test: Nutrient agar growth test, S. typhosa (Example 3); type: cell-based; conditions: 0.001 percent by weight, 2 days, 35°C
# Excerpt: as §2
# S. aureus [5] = test: Agar dilution MIC in presence of Ivory soap, S. aureus; type: cell-based; conditions: Staphylococcus aureus; read-out: Minimum growth inhibitory concentration, S. aureus
# Protocol: (§3) The growth-inhibitory activity of the below-indicated compounds against some microorganisms most relevant to the human skin was determined by standard agar dilution techniques to provide the data given in following Table 1.
# (§4) In Table 1, the first column gives the chemical structures of the test compounds, while the additional columns give the names of the test organisms and the minimum inhibitory concentration in parts per million (p.p.m.) of the compounds listed for 100% growth inhibition against the particular microorganisms indicated. […] For each p.p.m. of test compound, 50 p.p.m. of Ivory soap was also present in the culture medium for part A of Table 1, while in part B of Table 1, the culture medium was free of any additive other than the test compound. The data for compounds 13 through 16 of part B of Table 1 were taken from Cannon U.S. Pat. No. 3,207,660 while those for compounds 17 and 18 were taken from trade literature.
# P. aeruginosa [6] = test: Agar dilution MIC in presence of Ivory soap, P. aeruginosa; type: cell-based; conditions: Pseudomonas aeruginosa; read-out: Minimum growth inhibitory concentration, P. aeruginosa
# Protocol: as §3, §4
# S. typhosa [7] = test: Agar dilution MIC in presence of Ivory soap, S. typhosa; type: cell-based; conditions: read-out: Minimum growth inhibitory concentration, S. typhosa
# Protocol: as §3, §4
# [8] = Range-finding median lethal dose (LD50) in mice; conditions: mouse, in vivo; single oral dose in corn oil, 14-day observation
# Protocol: The range-finding oral median lethal dose (LD50) for iodonium and other antimicrobial compounds, including diphenyl- and thienyliodonium salts as well as several proprietary products was determined in mice. Compounds 1 through 11 of following Table 2 were fed to five groups of two mice each, the test compound being administered in suspension in corn oil as a single oral dose and the mortality experience of the mice was observed over a 14-day period. Data for compounds 12 through 15 were taken from U.S. Pat. No. 3,207,660, and for compounds 16 through 18 were taken from trade literature.
# mice = conditions: cited from earlier work; for Oral LD50 (mice): 12-15 from U.S. Pat. No. 3,207,660, 17, 18 from trade literature
# S. aureus [9] = conditions: absence of soap; 13-16 from Cannon U.S. Pat. No. 3,207,660, 17-18 from trade literature; cited from earlier work
# P. aeruginosa [10] = conditions: absence of soap; 13-16 from Cannon U.S. Pat. No. 3,207,660, 17-18 from trade literature; cited from earlier work
# [11] = Klebsiella aerogenes, 48 h, read-out: Percent Kill of A. aerogenes
# [12] = 48 h, read-out: Percent Kill of S. Typhosa
# [13] = Klebsiella aerogenes, 48 h, 10 p.p.m., read-out: Percent Kill of A. aerogenes
compound,measurement,setting,value
"c1csc([I+]c2cccs2)c1 [2,2'-bisthienyliodonium chloride]",killing at 5 ppm,"S. aureus [1]; Staphylococcus aureus, 48 h, 5 p.p.m., read-out: percent kill of S. aureus",100%
same,killing at 5 ppm,A. aerogenes; [11],100%
same,killing at 5 ppm,S. typhosa [2]; [12],100%
"Clc1ccc([I+]c2cccs2)cc1Cl [3,4-dichlorophenyl-2-thienyliodonium chloride]",killing at 1 ppm,"A. aerogenes; Klebsiella aerogenes, 48 h, 1 p.p.m., read-out: Percent Kill of A. aerogenes",100%
same,killing at 1 ppm,S. typhosa [2]; [12],100%
Clc1ccc([I+]c2cccs2)cc1.O=C([O-])C(F)(F)F [4-Chlorophenyl-2-thienyliodonium trifluoroacetate],microbial growth on agar surface,S. aureus [3],free of microbial growth
same,microbial growth on agar surface,S. typhosa [4],free of microbial growth
Brc1ccc([I+]c2cccs2)cc1 [4-bromophenyl-2-thienyliodonium chloride],killing at 5 ppm,A. aerogenes; [11],100%
same,killing at 5 ppm,S. typhosa [2]; [12],100%
Clc1ccc([I+]c2cccs2)cc1 [4-chlorophenyl-2-thienyliodonium trichloroacetate],microbial growth on agar surface,S. aureus [3],free of microbial growth
same,microbial growth on agar surface,S. typhosa [4],free of microbial growth
c1ccc([I+]c2ccccc2)cc1 [Compound 1 (Table 1)],MIC,S. aureus [5],> 500 µg/mL
same,MIC,P. aeruginosa [6],> 500 µg/mL
same,MIC,S. typhosa [7],> 500 µg/mL
c1ccc([I+]c2ccccc2)cc1 [Compound 1 (Table 2)],LD50,[8],56.2 mg/kg
c1ccc([I+]c2cccs2)cc1 [Compound 2 (Table 1)],MIC,S. aureus [5],5 µg/mL
same,MIC,P. aeruginosa [6],5 µg/mL
same,MIC,S. typhosa [7],5 µg/mL
c1csc([I+]c2cccs2)c1 [Compound 3 (Table 1)],MIC,S. aureus [5],0.5 µg/mL
same,MIC,P. aeruginosa [6],5 µg/mL
same,MIC,S. typhosa [7],0.5 µg/mL
c1ccc([I+]c2cccs2)cc1 [Compound 3 (Table 2)],LD50,[8],2000 mg/kg
Clc1ccc([I+]c2ccccc2)cc1 [Compound 4 (Table 1)],MIC,S. aureus [5],10 µg/mL
same,MIC,P. aeruginosa [6],> 100 µg/mL
same,MIC,S. typhosa [7],> 10 µg/mL
c1csc([I+]c2cccs2)c1 [Compound 4 (Table 2)],LD50,[8],500 mg/kg
Clc1ccc([I+]c2ccc(Cl)cc2)cc1 [Compound 5 (Table 1)],MIC,S. aureus [5],10 µg/mL
same,MIC,P. aeruginosa [6],> 100 µg/mL
same,MIC,S. typhosa [7],10 µg/mL
Clc1ccc([I+]c2cccs2)cc1 [Compound 5 (Table 2)],LD50,[8],> 4000 mg/kg
Clc1ccc([I+]c2cccs2)cc1 [Compound 6 (Table 1)],MIC,S. aureus [5],1 µg/mL
same,MIC,P. aeruginosa [6],1 µg/mL
same,MIC,S. typhosa [7],1 µg/mL
Clc1ccc([I+]c2cccs2)cc1Cl [Compound 6 (Table 2)],LD50,[8],2000 mg/kg
Clc1ccc([I+]c2ccc(Cl)c(Cl)c2)cc1Cl [Compound 7 (Table 1)],MIC,S. aureus [5],5 µg/mL
same,MIC,P. aeruginosa [6],> 500 µg/mL
same,MIC,S. typhosa [7],> 10 µg/mL
Cc1ccc([I+]c2cccs2)cc1 [Compound 7 (Table 2)],LD50,[8],750 mg/kg
Clc1ccc([I+]c2cccs2)cc1Cl [Compound 8 (Table 1)],MIC,S. aureus [5],1 µg/mL
same,MIC,P. aeruginosa [6],1 µg/mL
same,MIC,S. typhosa [7],1 µg/mL
CCc1ccc([I+]c2cccs2)cc1 [Compound 8 (Table 2)],LD50,[8],1500 mg/kg
CCOc1ccc([I+]c2ccccc2)cc1 [Compound 9 (Table 1)],MIC,S. aureus [5],> 500 µg/mL
same,MIC,P. aeruginosa [6],> 500 µg/mL
same,MIC,S. typhosa [7],> 500 µg/mL
Cc1ccc(C)c([I+]c2cccs2)c1 [Compound 9 (Table 2)],LD50,[8],3000 mg/kg
CCOc1ccc([I+]c2cccs2)cc1 [Compound 10 (Table 1)],MIC,S. aureus [5],5 µg/mL
same,MIC,P. aeruginosa [6],50 µg/mL
same,MIC,S. typhosa [7],5 µg/mL
c1ccc(Oc2ccc([I+]c3cccs3)cc2)cc1 [Compound 10 (Table 2)],LD50,[8],3000 mg/kg
c1ccc(-c2ccc([I+]c3cccs3)cc2)cc1 [Compound 11 (Table 2)],LD50,[8],4000 mg/kg
c1ccc2c(c1)[I+]c1ccccc1-2 [Compound 12 (Table 2)],Oral LD50 (mice),mice,12.5 mg/kg
c1ccc2c(c1)[I+]c1ccccc1-2 [Compound 13 (Table 1)],"Minimum growth inhibitory concentration, S. aureus",S. aureus [9],3.13 ppm
same,"Minimum growth inhibitory concentration, P. aeruginosa",P. aeruginosa [10],3.13 ppm
c1ccc2c(c1)[I+]c1ccccc1-2 [Compound 13 (Table 2)],Oral LD50 (mice),mice,8.75 ± 0.57 mg/kg
c1ccc2c(c1)[I+]c1ccccc1-2 [Compound 14 (Table 1)],"Minimum growth inhibitory concentration, S. aureus",S. aureus [9],5 ppm
same,"Minimum growth inhibitory concentration, P. aeruginosa",P. aeruginosa [10],5 ppm
Clc1cccc2c1-c1c(Cl)cccc1[I+]2 [Compound 14 (Table 2)],Oral LD50 (mice),mice,8 to 10 mg/kg
Clc1cccc2c1-c1ccccc1[I+]2 [Compound 15 (Table 1)],"Minimum growth inhibitory concentration, S. aureus",S. aureus [9],1.56 ppm
same,"Minimum growth inhibitory concentration, P. aeruginosa",P. aeruginosa [10],3.13 ppm
Clc1ccc2c(c1)[I+]c1cc(Cl)ccc1-2 [Compound 15 (Table 2)],Oral LD50 (mice),mice,21.32 ± 3.2 mg/kg
Clc1ccc2c(c1)[I+]c1cc(Cl)ccc1-2 [Compound 16 (Table 1)],"Minimum growth inhibitory concentration, S. aureus",S. aureus [9],1.56 ppm
same,"Minimum growth inhibitory concentration, P. aeruginosa",P. aeruginosa [10],6.25 ppm
C[CH2][Hg][S]c1ccccc1C(=O)[O-].[Na+] [Merthiolate],"LD50 (mice), subcutaneous","mice; S.C., trade literature",66 mg/kg
"Clc1ccc([I+]c2ccc(Cl)cc2Cl)c(Cl)c1 [bis(2,4-dichlorophenyl)iodonium chloride, bis(2,4-dichlorophenyl)iodoniumchloride, reference compound]",killing at 10 ppm,A. aerogenes; [13],0%
same,killing at 10 ppm,S. typhosa [2]; [12],0%
"Brc1ccc([I+]c2ccc(Br)cc2)cc1.[Br-] [bis(4-bromophenyl)iodonium bromide, reference compound]",Percent Kill of A. aerogenes,A. aerogenes; 10 p.p.m.,0%
same,Percent Kill of S. Typhosa,"S. typhosa [2]; 10 p.p.m., Ivory soap",0%
"Brc1ccc([I+]c2ccc(Br)cc2)cc1 [bis(4-bromophenyl)iodonium chloride, reference compound]",killing at 10 ppm,A. aerogenes; [13],0%
same,killing at 10 ppm,S. typhosa [2]; [12],0%
"Clc1ccc([I+]c2ccc(Cl)cc2)cc1 [bis(4-chlorophenyl)iodonium chloride, reference compound]",killing at 100 ppm,"A. aerogenes; Klebsiella aerogenes, 48 h, 100 p.p.m., read-out: Percent Kill of A. aerogenes",0%
"[Cl-].c1ccc([I+]c2ccccc2)cc1 [diphenyliodonium chloride, reference compound]",growth of S. aureus,S. aureus [1]; 500 p.p.m.,heavy uniform growth
same,killing at 500 ppm,"S. typhosa [2]; 48 h, 500 p.p.m., Ivory soap, read-out: Percent Kill of S. Typhosa",0%
Oc1c(Cl)cc(Cl)c(Cl)c1Cc1c(O)c(Cl)cc(Cl)c1Cl [hexachlorophene],Oral LD50 (mice),mice,161 mg/kg
"c1ccc([I+]c2cccs2)cc1 [phenyl-2-thienyliodonium chloride, Phenyl-2-thienyliodonium chloride]",killing at […],"S. aureus [1]; Staphylococcus aureus, 48 h, 2.5 p.p.m., read-out: percent kill of S. aureus",100%
same,killing at […],"A. aerogenes; Klebsiella aerogenes, 48 h, 2.5 p.p.m., read-out: Percent Kill of A. aerogenes",100%
same,killing at […],S. typhosa [2]; [12],100%
"Clc1ccc([I+]c2ccccc2)cc1.[Cl-] [phenyl-4-chlorophenyliodonium chloride, reference compound]",killing at 10 ppm,A. aerogenes; [13],0%
same,killing at 10 ppm,S. typhosa [2]; [12],0%
same,LD50,[8],68 mg/kg
